Data on five compounds can be found in patent US10729688B2, “Hepatitis B antiviral agents” (Enanta Pharmaceuticals, Inc., priority 2018, dated 2020).

For orientation: CC50 means the concentration at which the toxic effect on the cells reaches its halfway point. The term EC50 denotes the concentration giving half of the maximal effect.

Each structure is given as a SMILES string.

Data set [1] is described as follows: Compound toxicity, ATPLite total ATP levels. The data set is classed as cell-based. As to conditions: human, HepAD38 cells; 15,000 cells/well; three days after compound addition; total ATP levels reduced by 50% relative to no drug controls. As to the method:
(§1) Methods: HepAD38 cells were maintained as previously reported (Ladner et al, Antimicrob. Agents Chemother. 1997, 4, 1715). Briefly, cells were passaged upon attaining confluency in DMEM/F12 media in the presence of 10% FBS, Penn/Strep, 250 μg/mL G418, and 1 ug/ml tetracycline. Compounds were screened by first washing cells three times with PBS to remove tetracycline, and plating in 96 well plates at 35,000 cells/well. Compounds dissolved in DMSO were then diluted 1:200 into wells containing cells. Five days after compound addition, material was harvested for analysis. For an extended 8 day analysis, cells were plated and treated as described above, but media and compound were refreshed on day 2 and day 5 post initial treatment.
Compound toxicity was evaluated by seeding cells at 15,000 cells/well and treating with compound as described above.

A further data set relates to HBV. As to the kind of experiment: HepAD38 antiviral assay: reduction of viral product accumulation. The data set is classed as cell-based. To be noted: Hepatitis B virus, 120 h; HepAD38 cells, tetracycline removed; harvest five days after compound addition; viral product (virion DNA by qPCR, or HBsAg/HBeAg by ELISA) reduced by 50% relative to no drug controls. On the procedure: as §1
On harvest day, virion DNA was obtained by lysing with Sidestep Lysis and Stabilization Buffer and then quantified via quantitative real time PCR. Commercially available ELISA kits were used to quantitate the viral proteins HBsAg (Alpco) or HbeAg (US Biological) by following the manufacturer's recommended protocol after diluting samples to match the linear range of their respective assays. Irrespective of readout, compound concentrations that reduce viral product accumulation in the cell lysates or supernatants by 50% relative to no drug controls (EC50) are reported; EC50 ranges are as follows: A<0.1 μM; B 0.1-0.2 μM; C>0.2 μM.

As to `O=C(Nc1cc(F)c(F)c(F)c1)N1Cc2c(N3CCCS3(=O)=O)cnn2[C@@H]2CCCC[C@@H]21` [Example 51], in data set [1], the CC50 at 3 days was over 25 µM. Besides, the EC50 in the data set on HBV is under 0.1 µM.

`O=C(Nc1cc(F)c(F)c(F)c1)N1Cc2c(N3C(=O)O[C@@H]4CCCC[C@@H]43)cnn2[C@@H]2CCC[C@@H]21` [Example 53] displayed a CC50 at 3 days in data set [1] of over 25 µM. This compound also registered an EC50 in the data set on HBV of under 0.1 µM.

In the case of `CC1(C)COC(=O)N1c1cnn2c1CN(C(=O)Nc1cc(F)c(F)c(F)c1)[C@H]1CCC[C@H]12` [Example 60], the CC50 at 3 days in data set [1] was over 25 µM. For the same compound, in the data set on HBV, the EC50 was under 0.1 µM.

In turn, `O=C(Nc1cc(F)c(F)c(F)c1)N1Cc2c(N3CCCS3(=O)=O)cnn2C[C@@H]1c1ccccn1` [Example 72] registered a CC50 at 3 days in data set [1] of over 25 µM. The same compound registered an EC50 with HBV of under 0.1 µM.

For `O=C(Nc1cc(F)c(F)c(F)c1)N1Cc2c(N3CCCS3(=O)=O)cnn2C[C@@H]1C1CC1` [Example 73], the CC50 at 3 days in data set [1] was over 25 µM. The compound also gave an EC50 with HBV of under 0.1 µM.
